Reference: ChEMBL document CHEMBL4627275, “Inhibition of cholesteryl ester synthesis by polyacetylenes from Atractylodes rhizome” (Bioorg Med Chem Lett, 2020)
The source made the active and inactive calls. No cut-off for these calls is given here.

Columns and labels:
[1] = (§1) Inhibition of SOAT in CHOK1 microsomes; parameters: species or system Cricetulus griseus; details: cho-k1
[2] = test system: CHO-K1; experiment: Effect on lipid droplet accumulation in CHOK1 cells at >100 uM preincubated with oleic acid for 12 hrs followed by replacement of fresh medium containing compounds and measured after 6 hrs by oil red O staining based confocal laser scanning microscopy; type: functional, cell-based; details: Cricetulus griseus
[3] = molecular target: T1, Sterol O-acyltransferase 2 (Homo sapiens, UniProt O75908); experiment: Inhibition of human SOAT2-mediated [14C]Cholesterol ester synthesis in CHO cells after 6 hrs in presence of [14C]Oleic acid by TLC analysis; type: cell-based
T1 sequence (O75908 whole entry): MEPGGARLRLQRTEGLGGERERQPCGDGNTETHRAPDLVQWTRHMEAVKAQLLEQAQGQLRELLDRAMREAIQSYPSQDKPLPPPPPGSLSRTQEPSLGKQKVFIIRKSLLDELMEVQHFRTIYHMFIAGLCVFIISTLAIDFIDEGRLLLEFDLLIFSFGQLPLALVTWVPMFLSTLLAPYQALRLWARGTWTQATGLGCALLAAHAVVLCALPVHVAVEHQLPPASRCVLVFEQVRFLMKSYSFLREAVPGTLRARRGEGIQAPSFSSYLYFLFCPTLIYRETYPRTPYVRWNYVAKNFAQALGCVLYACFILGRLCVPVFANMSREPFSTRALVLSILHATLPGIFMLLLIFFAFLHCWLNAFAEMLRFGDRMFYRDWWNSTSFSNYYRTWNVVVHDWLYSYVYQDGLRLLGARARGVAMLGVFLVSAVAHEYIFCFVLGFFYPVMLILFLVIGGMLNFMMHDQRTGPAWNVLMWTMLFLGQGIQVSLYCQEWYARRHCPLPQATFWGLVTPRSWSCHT

[4] = test system: CHO-K1; experiment: Inhibition of [14C]triglyceride biosynthesis in CHOK1 cells using [14C]Oleic acid as substrate after 6 hrs by TLC method; type: functional, cell-based; details: Cricetulus griseus, CHO-K1, 6 h
[5] = test system: CHO-K1; experiment: Inhibition of [14C]cholesterol ester biosynthesis in CHOK1 cells using [14C]Oleic acid as substrate after 6 hrs by TLC method; type: functional, cell-based; details: Cricetulus griseus, CHO-K1, 6 h
[6] = test system: CHO-K1; experiment: Cytotoxicity against CHOK1 cells assessed as reduction in cell viability; type: cell-based; details: Cricetulus griseus
[7] = molecular target: T1, Sterol O-acyltransferase 2; experiment: Inhibition of human SOAT2-mediated [14C]Cholesterol ester biosynthesis in CHO microsomal fraction after 5 mins in presence of [1-14C]oleoyl-CoA by TLC analysis
[8] = molecular target: T2, Sterol O-acyltransferase 1 (Homo sapiens, UniProt P35610); experiment: Inhibition of human SOAT1-mediated [14C]Cholesterol ester biosynthesis in CHO microsomal fraction after 5 mins in presence of [1-14C]oleoyl-CoA by TLC analysis
T2 sequence (P35610 whole entry): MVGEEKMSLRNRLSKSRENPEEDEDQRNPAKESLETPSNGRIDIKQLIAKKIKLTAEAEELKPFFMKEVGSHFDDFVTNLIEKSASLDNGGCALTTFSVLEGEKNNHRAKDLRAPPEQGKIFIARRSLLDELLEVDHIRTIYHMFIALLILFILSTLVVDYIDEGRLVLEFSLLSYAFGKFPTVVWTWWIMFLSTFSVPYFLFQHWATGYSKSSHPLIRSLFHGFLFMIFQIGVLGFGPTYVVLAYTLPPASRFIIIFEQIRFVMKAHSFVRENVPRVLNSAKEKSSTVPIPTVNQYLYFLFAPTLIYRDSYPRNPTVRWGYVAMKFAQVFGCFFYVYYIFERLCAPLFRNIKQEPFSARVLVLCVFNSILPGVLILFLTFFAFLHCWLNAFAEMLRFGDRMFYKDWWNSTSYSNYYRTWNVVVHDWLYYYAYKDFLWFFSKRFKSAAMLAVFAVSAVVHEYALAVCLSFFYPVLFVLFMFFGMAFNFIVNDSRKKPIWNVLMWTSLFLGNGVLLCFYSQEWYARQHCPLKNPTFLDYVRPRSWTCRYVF

[9] = molecular target: T2, Sterol O-acyltransferase 1; experiment: Inhibition of human SOAT1 mediated [14C]Cholesterol ester synthesis in CHO cells after 6 hrs in presence of [14C]Oleic acid by TLC analysis; type: cell-based
[10] = test system: CHO-K1; experiment: as §1; details: Cricetulus griseus

IC50 [1] [µM]	IC50 [3] [µM]	IC50 [7] [µM]	IC50 [8] [µM]	IC50 [9] [µM]	inhibition [10]	Compound	Activity [2]	IC50 [4] [µM]	IC50 [5] [µM]	IC50 [6] [µM]
211	187	101				C=C1CCC[C@]2(C)C[C@]3(O)OC(=O)C(C)=C3C[C@@H]12 [ATRACTYLENOLIDE III]	inactive	> 195	73.5	> 195
29	36.2	11.5	4.7	32.8	Dose-dependent effect	CC(=O)OCCC(/C=C/C=C/C#CC#C/C=C/CO)OC(=O)C=C(C)C (configuration not stated)	inactive	> 136	35.4	111
